US11485742B2, “2-azaspiro[3.4]octane derivatives as M4 agonists” (NOVARTIS AG, priority 2019, dated 2022)
Structures can show the parent of a compound that is named as a salt.

Legend:
[1] = molecular target: T1, human cloned CHRM2 receptor (Homo sapiens, UniProt P08172); assay: CHRM2 Ca++ Flux Assay (M2_CHO cells, agonist mode); type: cell-based; settings: M2 CHO cells; for EC50: agonist mode, geometric mean if tested more than once, read-out: M2 FDSS EC50; for Emax: Percent Activity (PA) measured to EC100 of Carbachol, read-out: M2 FDSS PA %
T1 construct: expressed in transfected cells; host or cells: CHO-K1 (M2_CHO)
T1 sequence (P08172 1-466): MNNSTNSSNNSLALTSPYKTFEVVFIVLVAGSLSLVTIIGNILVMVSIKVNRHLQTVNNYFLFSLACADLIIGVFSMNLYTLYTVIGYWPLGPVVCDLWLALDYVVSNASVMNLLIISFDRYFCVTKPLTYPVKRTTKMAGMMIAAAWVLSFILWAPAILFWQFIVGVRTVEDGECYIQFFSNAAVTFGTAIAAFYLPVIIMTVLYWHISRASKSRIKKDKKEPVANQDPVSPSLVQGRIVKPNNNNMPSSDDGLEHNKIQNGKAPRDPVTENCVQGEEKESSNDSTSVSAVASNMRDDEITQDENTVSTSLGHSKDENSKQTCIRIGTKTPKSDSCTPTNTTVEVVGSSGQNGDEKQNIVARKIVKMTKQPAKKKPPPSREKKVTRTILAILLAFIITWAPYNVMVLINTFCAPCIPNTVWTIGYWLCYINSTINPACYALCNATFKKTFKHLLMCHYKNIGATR
Outline: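 Agonist activity was expressed as percent of the carbachol EC100 response, fitted by four-parameter regression on triplicate wells, with geometric means across repeat runs. Calcium traces over 3 minutes came from dye-loaded M2_CHO cells (12K/well) pre-incubated 60 min in Ca/Mg-free HBSS with 20 mM HEPES, 2.5 mM probenecid and 20 μM ATP.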

[2] = molecular target: T2, human cloned CHRM4 receptor (Homo sapiens, UniProt P08173); assay: CHRM4 Ca++ Flux Assay (M4_CHO cells, agonist mode); type: cell-based; settings: for Emax: Percent Activity (PA), read-out: M4 FDSS PA %; for EC50: geometric mean if tested more than once, read-out: M4 FDSS EC50
T2 construct: expressed in transfected cells; host or cells: CHO-K1 (M4_CHO)
T2 sequence (P08173 1-479): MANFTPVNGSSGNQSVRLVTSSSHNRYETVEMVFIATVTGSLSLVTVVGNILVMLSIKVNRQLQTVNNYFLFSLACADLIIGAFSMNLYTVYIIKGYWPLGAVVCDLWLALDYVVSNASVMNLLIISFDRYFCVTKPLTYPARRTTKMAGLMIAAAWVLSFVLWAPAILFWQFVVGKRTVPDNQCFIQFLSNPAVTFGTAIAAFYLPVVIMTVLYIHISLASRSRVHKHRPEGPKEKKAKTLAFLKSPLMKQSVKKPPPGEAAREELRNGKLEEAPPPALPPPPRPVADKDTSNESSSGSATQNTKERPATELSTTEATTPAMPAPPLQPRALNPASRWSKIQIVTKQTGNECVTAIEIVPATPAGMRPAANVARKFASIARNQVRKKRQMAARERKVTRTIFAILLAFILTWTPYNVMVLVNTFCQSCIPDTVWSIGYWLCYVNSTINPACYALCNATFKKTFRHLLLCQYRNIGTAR
Outline: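 Agonist-mode calcium flux in an M4-expressing CHO-K1 line: compounds were dosed at 11 points in triplicate and fluorescence was tracked for 3 min. Cells were preloaded with Ca++ dye and kept in −Ca/−Mg HBSS with 20 μM ATP for 60 min. Efficacy is scaled to carbachol EC100; EC50s come from four-parameter regression, geometric mean across runs.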

## c1ccc(C2CCN([C@@H]3COC4(C3)CN(c3ncco3)C4)CC2)c(C2CCOCC2)c1 [Example 4V, (S)-2-(oxazol-2-yl)-7-(4-(2-(tetrahydro-2H-pyran-4-yl)phenyl)piperidin-1-yl)-5-oxa-2-azaspiro[3.4]octane]
[1]
  EC50: 10700 nM
  Emax: 14%
[2]
  Emax: 82%
  EC50: 46 nM

## Fc1ccc(C2CCOCC2)c(C2CCN([C@@H]3COC4(C3)CN(c3ncco3)C4)CC2)c1 [Example 4W, (S)-7-(4-(5-fluoro-2-(tetrahydro-2H-pyran-4-yl)phenyl)piperidin-1-yl)-2-(oxazol-2-yl)-5-oxa-2-azaspiro[3.4]octane]
[1]
  EC50: 5160 nM
  Emax: 21%
[2]
  Emax: 75%
  EC50: 21 nM

## COc1ccc(Cl)cc1C1CCN([C@@H]2COC3(C2)CN(c2ncns2)C3)CC1 [Example 5A, (S)-7-(4-(5-chloro-2-methoxyphenyl)piperidin-1-yl)-2-(1,2,4-thiadiazol-5-yl)-5-oxa-2-azaspiro[3.4]octane]
[1]
  EC50: > 25000 nM
  Emax: 26%
[2]
  Emax: 60%
  EC50: 74 nM

## COc1ccccc1C1CCN([C@@H]2COC3(C2)CN(c2ncns2)C3)CC1 [Example 5B, (S)-7-(4-(2-methoxyphenyl)piperidin-1-yl)-2-(1,2,4-thiadiazol-5-yl)-5-oxa-2-azaspiro[3.4]octane]
[1]
  EC50: > 25000 nM
  Emax: 0%
[2]
  Emax: 59%
  EC50: 87 nM

## CC(C)(O)COc1ccc(F)cc1C1CCN([C@@H]2COC3(C2)CN(c2ncns2)C3)CC1 [Example 5C, (S)-1-(2-(1-(2-(1,2,4-thiadiazol-5-yl)-5-oxa-2-azaspiro[3.4]octan-7-yl)piperidin-4-yl)-4-fluorophenoxy)-2-methylpropan-2-ol]
[1]
  EC50: > 25000 nM
  Emax: 0%
[2]
  Emax: 66%
  EC50: 110 nM

## COCCOc1ccc(F)cc1C1CCN([C@@H]2COC3(C2)CN(c2ncns2)C3)CC1 [Example 5D, (S)-7-(4-(5-fluoro-2-(2-methoxyethoxy)phenyl)piperidin-1-yl)-2-(1,2,4-thiadiazol-5-yl)-5-oxa-2-azaspiro[3.4]octane]
[1]
  EC50: > 25000 nM
  Emax: 0%
[2]
  Emax: 46%
  EC50: 128 nM

## COc1cc(F)ccc1C1CCN([C@@H]2COC3(C2)CN(c2ncns2)C3)CC1 [Example 5E, (S)-7-(4-(4-fluoro-2-methoxyphenyl)piperidin-1-yl)-2-(1,2,4-thiadiazol-5-yl)-5-oxa-2-azaspiro[3.4]octane]
[1]
  EC50: > 25000 nM
  Emax: 0%
[2]
  Emax: 39%
  EC50: 345 nM

## Cc1nc(COc2ccccc2C2CCN([C@@H]3COC4(C3)CN(c3nncs3)C4)CC2)no1 [Example 5F, (S)-7-(4-(2-((5-methyl-1,2,4-oxadiazol-3-yl)methoxy)phenyl)piperidin-1-yl)-2-(1,3,4-thiadiazol-2-yl)-5-oxa-2-azaspiro[3.4]octane]
[1]
  EC50: 73 nM
  Emax: 51%
[2]
  Emax: 90%
  EC50: < 0.4 nM

## Fc1ccc(OC2COC2)c(C2CCN([C@@H]3COC4(C3)CN(c3nncs3)C4)CC2)c1 [Example 5G, (S)-7-(4-(5-fluoro-2-(oxetan-3-yloxy)phenyl)piperidin-1-yl)-2-(1,3,4-thiadiazol-2-yl)-5-oxa-2-azaspiro[3.4]octane]
[1]
  EC50: 657 nM
  Emax: 35%
[2]
  Emax: 76%
  EC50: 13 nM

## Fc1ccc(O[C@@H]2CCOC2)c(C2CCN([C@@H]3COC4(C3)CN(c3nncs3)C4)CC2)c1 [Example 5H, (S)-7-(4-(5-fluoro-2-(((R)-tetrahydrofuran-3-yl)oxy)phenyl)piperidin-1-yl)-2-(1,3,4-thiadiazol-2-yl)-5-oxa-2-azaspiro[3.4]octane]
[1]
  EC50: 443 nM
  Emax: 40%
[2]
  Emax: 99%
  EC50: 15 nM

## Fc1ccc(OC[C@@H]2CCOC2)c(C2CCN([C@@H]3COC4(C3)CN(c3nncs3)C4)CC2)c1 [Example 5I, (S)-7-(4-(5-fluoro-2-(((R)-tetrahydrofuran-3-yl)methoxy)phenyl)piperidin-1-yl)-2-(1,3,4-thiadiazol-2-yl)-5-oxa-2-azaspiro[3.4]octane]
[1]
  EC50: 545 nM
  Emax: 43%
[2]
  Emax: 71%
  EC50: 20 nM

## Fc1ccc(OC2CCOCC2)c(C2CCN([C@@H]3COC4(C3)CN(c3nncs3)C4)CC2)c1 [Example 5J, (S)-7-(4-(5-fluoro-2-((tetrahydro-2H-pyran-4-yl)oxy)phenyl)piperidin-1-yl)-2-(1,3,4-thiadiazol-2-yl)-5-oxa-2-azaspiro[3.4]octane]
[1]
  EC50: 4750 nM
  Emax: 46%
[2]
  Emax: 92%
  EC50: 29 nM

## Fc1ccc(OC[C@H]2COCCO2)c(C2CCN([C@@H]3COC4(C3)CN(c3nncs3)C4)CC2)c1 [Example 5K, (S)-7-(4-(2-(((R)-1,4-dioxan-2-yl)methoxy)-5-fluorophenyl)piperidin-1-yl)-2-(1,3,4-thiadiazol-2-yl)-5-oxa-2-azaspiro[3.4]octane]
[1]
  EC50: 453 nM
  Emax: 32%
[2]
  Emax: 87%
  EC50: 31 nM

## Fc1ccc(OC[C@@H]2COCCO2)c(C2CCN([C@@H]3COC4(C3)CN(c3nncs3)C4)CC2)c1 [Example 5L, (S)-7-(4-(2-(((S)-1,4-dioxan-2-yl)methoxy)-5-fluorophenyl)piperidin-1-yl)-2-(1,3,4-thiadiazol-2-yl)-5-oxa-2-azaspiro[3.4]octane]
[1]
  EC50: 456 nM
  Emax: 32%
[2]
  Emax: 79%
  EC50: 38 nM

## Fc1cc(O[C@@H]2CCOC2)c(C2CCN([C@@H]3COC4(C3)CN(c3nncs3)C4)CC2)cc1F [Example 5M, (S)-7-(4-(4,5-difluoro-2-(((R)-tetrahydrofuran-3-yl)oxy)phenyl)piperidin-1-yl)-2-(1,3,4-thiadiazol-2-yl)-5-oxa-2-azaspiro[3.4]octane]
[1]
  EC50: 415 nM
  Emax: 34%
[2]
  Emax: 73%
  EC50: 58 nM

## COC(C)(C)CCOc1ccc(F)cc1C1CCN([C@@H]2COC3(C2)CN(c2nncs2)C3)CC1 [Example 5N, (S)-7-(4-(5-fluoro-2-(3-methoxy-3-methylbutoxy)phenyl)piperidin-1-yl)-2-(1,3,4-thiadiazol-2-yl)-5-oxa-2-azaspiro[3.4]octane]
[1]
  EC50: > 25000 nM
  Emax: 38%
[2]
  Emax: 61%
  EC50: 68 nM

## Fc1ccc(O[C@H]2CCOC2)c(C2CCN([C@@H]3COC4(C3)CN(c3nncs3)C4)CC2)c1 [Example 5O, (S)-7-(4-(5-fluoro-2-(((S)-tetrahydrofuran-3-yl)oxy)phenyl)piperidin-1-yl)-2-(1,3,4-thiadiazol-2-yl)-5-oxa-2-azaspiro[3.4]octane]
[1]
  EC50: 1170 nM
  Emax: 33%
[2]
  Emax: 74%
  EC50: 71 nM

## CC(C)(O)CCOc1ccc(F)cc1C1CCN([C@@H]2COC3(C2)CN(c2nncs2)C3)CC1 [Example 5P, (S)-4-(2-(1-(2-(1,3,4-thiadiazol-2-yl)-5-oxa-2-azaspiro[3.4]octan-7-yl)piperidin-4-yl)-4-fluorophenoxy)-2-methylbutan-2-ol]
[1]
  EC50: 9700 nM
  Emax: 25%
[2]
  Emax: 58%
  EC50: 86 nM

## c1ccc(C2CCN([C@@H]3COC4(C3)CN(c3nncs3)C4)CC2)c(OC2COC2)c1 [Example 5Q, (S)-7-(4-(2-(oxetan-3-yloxy)phenyl)piperidin-1-yl)-2-(1,3,4-thiadiazol-2-yl)-5-oxa-2-azaspiro[3.4]octane formate salt]
[1]
  EC50: > 25000 nM
  Emax: 0%
[2]
  Emax: 83%
  EC50: 92 nM

## COc1ccccc1C1CCN([C@@H]2COC3(C2)CN(c2nncs2)C3)CC1 [Example 5R, (S)-7-(4-(2-methoxyphenyl)piperidin-1-yl)-2-(1,3,4-thiadiazol-2-yl)-5-oxa-2-azaspiro[3.4]octane]
[1]
  EC50: 1240 nM
  Emax: 18%
[2]
  Emax: 73%
  EC50: 96 nM
